Patent publication EP0364819A2, “LHRH analogs” (The Administrators of The Tulane Educational Fund, priority 1988, dated 1990)

Assays:
[1] = prior art analogues with Chlorambucil as cytotoxic moiety; cited from earlier work
[2] = target: T1, membrane receptors of rat pituitary (Rattus norvegicus, UniProt P30969); experiment: Receptor binding to rat pituitary membranes with 125I-labeled [D-Trp6]LHRH; details: Table 2, antagonistic analogues; high affinity binding sites; pituitary of male rats; ¹²⁵l-labeled [D-Trp⁶]LHRH
T1 construct: membrane receptors of rat pituitary; from tissue; host or cells: rat pituitary membranes
T1 sequence (P30969 1-327): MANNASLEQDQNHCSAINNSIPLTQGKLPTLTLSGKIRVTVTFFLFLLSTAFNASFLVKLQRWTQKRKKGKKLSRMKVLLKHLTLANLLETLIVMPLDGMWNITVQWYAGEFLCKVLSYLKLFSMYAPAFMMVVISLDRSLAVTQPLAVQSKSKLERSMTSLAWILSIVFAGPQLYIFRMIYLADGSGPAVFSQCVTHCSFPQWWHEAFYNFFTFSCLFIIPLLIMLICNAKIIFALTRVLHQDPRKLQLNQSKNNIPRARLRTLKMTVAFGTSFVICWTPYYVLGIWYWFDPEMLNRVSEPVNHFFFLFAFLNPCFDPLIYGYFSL
Method: (§1) This is determined by using labelled LHRH and [D-Trp⁶]LHRH. The assay is carried out similarly to that described by T. Kadar et al., Proc. Natl. Acad. Sci. USA, 85, 890-894 (1988).
(§2) Table 2 presents the antiovulatory activity of the claimed compounds having LHRH-inhibiting properties. The inhibitory action was determined in vivo, in 4-day cycling rats as described [A. Corbin and C. W. Beattie, Endocr. Res. Commun., 2, 1-23 (1975)]. Affinities of the claimed compounds to membrane receptors of rat pituitary and human breast cancer cells are also given in Tables 1 and 2 as determined by using [[…],D-Trp⁶]LHRH.

[3] = test system: membrane receptors of Dunning tumor; experiment: Receptor binding to Dunning tumor membranes with 125I-labeled [D-Trp6]LHRH; details: first receptor class (high affinity binding sites); rat Dunning tumor
Method: as §1

[4] = test system: membrane receptors of human prostate cancer; experiment: Receptor binding to human prostate cancer membranes with 125I-labeled [D-Trp6]LHRH; details: first receptor class (high affinity binding sites)
Method: (§3) (c)Affinity for peptides to human prostate and breast cancer cell membranes.
as §1

[5] = target: T2, membrane receptors of human breast cancer cells (Homo sapiens, UniProt P30968); experiment: Receptor binding to human breast cancer cell membranes with 125I-labeled [D-Trp6]LHRH; details: Table 2, antagonistic analogues, high affinity binding sites, ¹²⁵l-labeled [D-Trp⁶]LHRH
T2 construct: human prostate and breast cancer cell membranes; endogenous in cells
T2 sequence (P30968 1-328): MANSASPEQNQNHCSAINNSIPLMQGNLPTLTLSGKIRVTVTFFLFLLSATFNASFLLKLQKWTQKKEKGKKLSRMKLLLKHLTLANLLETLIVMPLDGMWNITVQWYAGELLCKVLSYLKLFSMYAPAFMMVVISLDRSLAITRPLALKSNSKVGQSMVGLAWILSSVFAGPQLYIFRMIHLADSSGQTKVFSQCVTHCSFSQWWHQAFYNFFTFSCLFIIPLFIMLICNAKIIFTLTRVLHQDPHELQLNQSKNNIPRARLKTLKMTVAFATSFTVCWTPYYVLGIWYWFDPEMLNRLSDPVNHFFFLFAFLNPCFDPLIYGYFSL
Method: as §3, §1, §2

4-day cycling rats = experiment: In vivo antiovulatory activity in 4-day cycling rats; details: Dose 3 µg/rat; 4-day cyclic rats
Method: This activity of the peptides is determined in 4-day-cycling rats as described [A. Corbin and C. W.Beattie, Endocr. Res. Commun. 2, 1-23(1975)].
as §2

For “[Chlorambucil-D-Leu²,D-Leu³,D-Ala⁶]LHRH (2-10)”, the “activities (LHRH agonist or antagonist)” value [1] is given as “moderate activities”.

In the case of [D-Lys(Chlorambucil)⁶] LHRH, the “activities (LHRH agonist or antagonist)” value [1] is listed as “moderate activities”.

In the case of “Ac-D-Nal(2)-D-Phe(4Cl)-D-Pal(3)-Ser-Arg-D-Mel-Leu-Arg-Pro-D-Ala-NH₂ [Example II]”, the “Binding affinity, Ka1, for membrane receptors of pituitary” value (“Binding affinity, Ka1 … of pituitary” for short) [2] is reported as 7.190 nM-¹, the “Dunning tumor* Ka1” value [3] is reported as 1.68 nM⁻¹ and the “Human prostate cancer* Ka1” value [4] is reported as 0.7 nM⁻¹. For the same molecule, the “Binding affinity, Ka1, for membrane receptors of cancer cells” value (from here on “Binding affinity, Ka1 … of cancer cells”) [5] was 3.967 nM-¹.

With `CC(C)C[C@H](NC(=O)[C@@H](Cc1c[nH]c2ccccc12)NC(=O)[C@H](Cc1ccc(O)cc1)NC(=O)[C@H](CO)NC(=O)[C@H](Cc1c[nH]c2ccccc12)NC(=O)[C@H](Cc1c[nH]cn1)NC(=O)[C@@H]1CCC(=O)N1)C(=O)N[C@@H](CCCNC(=N)N)C(=O)N1CCC[C@H]1C(=O)NCC(N)=O` [[D-Trp⁶]-LHRH, reference compound] the “Dunning tumor* Ka1” value [3] was 1.87 nM⁻¹ and the “Human prostate cancer* Ka1” value [4] was 0.04 nM⁻¹.

For “[Chlorambucil-D-Phe¹,D-Phe²,D-Trp³ʼ⁶]LHRH”, the “activities (LHRH agonist or antagonist)” value [1] is listed as “practically inactive”.

For “Ac-D-Nal(2)-D-Phe(4Cl)-D-Pal(3)-Ser-Arg-D-Lys[(Cu⁺⁺)(POLP)₂(DL-A₂pr)]-Leu-Arg-Pro-D-Ala-NH₂ [Example XX]”, the “Binding affinity, Ka1 … of pituitary” value [2] was 5.250 nM-¹, the “Binding affinity, Ka1 … of cancer cells” value [5] was 2.436 nM-¹ and the “Hormonal activity* %Blockade of ovulation” value (“Hormonal activity* %Blockade” for short) (4-day cycling rats) was 80%.

In the case of “Ac-D-Nal(2)-D-Phe(4Cl)-D-Pal(3)-Ser-Arg-D-Lys[(Cu⁺⁺)(POL)₂(DL-A₂pr)]-Leu-Arg-Pro-D-Ala-NH₂ [XXIV]”, the “Binding affinity, Ka1 … of pituitary” value [2] is reported as 5.483 nM-¹, the “Binding affinity, Ka1 … of cancer cells” value [5] is reported as 2.628 nM-¹ and the “Hormonal activity* %Blockade” value (4-day cycling rats) is reported as 50%.

In the case of “Ac-D-Nal(2)-D-Phe(4Cl)-D-Trp-Ser-Arg-D-Lys[(Ni⁺⁺)(SAL)₂(DL-A₂pr)]-Leu-Arg-Pro-D-Ala-NH₂ [Example XV]”, the “Binding affinity, Ka1 … of pituitary” value [2] is reported as 8.676 nM-¹, the “Binding affinity, Ka1 … of cancer cells” value [5] is reported as 4.418 nM-¹ and the “Hormonal activity* %Blockade” value (4-day cycling rats) is reported as 20%.
